Reference: ChEMBL document CHEMBL1201862, “PubChem BioAssay data set” (2004)
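In this assay, cells in 96-well plates receive the compound at five concentrations for 48 hours. Endpoints are linearly interpolated between the surrounding concentrations. At the GI50, growth is halved.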 The source made the active and inactive calls. Rule as the data show it: active = GI50 up to about 1.1 µM and inactive = higher.

Tests used:
Experiment in all cases: NCI anticancer screen, dose series, 48 h
UO-31 = test system: UO-31
EKVX = test system: EKVX
SN12C = test system: SN12C
SK-MEL-2 = test system: SK-MEL-2
U-251 = test system: U-251
IGROV-1 = test system: IGROV-1
NCI-H522 = test system: NCI-H522
A498 = test system: A498
TK-10 = test system: TK-10
SK-OV-3 = test system: SK-OV-3
NCI-H226 = test system: NCI-H226
HT-29 = test system: HT-29
HL-60 = test system: HL-60
NCI-H460 = test system: NCI-H460
HOP-92 = test system: HOP-92
RXF 393 = test system: RXF 393

Measured: GI50

CC(=O)n1cc(CC(C)O)c(=O)[nH]c1=O (configuration not stated)
inactive: UO-31 > 100 µM | EKVX > 100 µM | SN12C 17.1 µM | SK-MEL-2 > 100 µM | U-251 > 100 µM | IGROV-1 > 100 µM | NCI-H522 > 100 µM | A498 > 100 µM | TK-10 > 100 µM | SK-OV-3 > 100 µM | NCI-H226 > 100 µM | HT-29 > 100 µM | HL-60 > 100 µM | NCI-H460 > 100 µM

O=C(O)C(CS)Nc1c2ccccc2nc2ccccc12 (configuration not stated)
inactive: UO-31 26 µM | EKVX 42.7 µM | SN12C 51.1 µM | SK-MEL-2 83.9 µM | U-251 > 100 µM | IGROV-1 > 100 µM | NCI-H522 29.1 µM | TK-10 35.6 µM | SK-OV-3 > 100 µM | HOP-92 49.7 µM | RXF 393 > 100 µM | NCI-H226 > 100 µM | HT-29 46.6 µM | HL-60 80.4 µM | NCI-H460 36.1 µM

CC(C)(C)C(=O)/C=C/c1ccc(Oc2ccccc2)cc1
inactive: UO-31 15.8 µM | EKVX 20 µM | SN12C 19.3 µM | SK-MEL-2 16.7 µM | U-251 14.8 µM | IGROV-1 30.8 µM | NCI-H522 11.2 µM | A498 14.5 µM | TK-10 26.6 µM | SK-OV-3 37.9 µM | RXF 393 27.4 µM | NCI-H226 19.6 µM | HT-29 8.51 µM | NCI-H460 19.2 µM

CC1=C(C(=O)NCc2ccccc2)C(c2ccccc2[N+](=O)[O-])C(C(=O)NCc2ccccc2)=C(C)N1
inactive: UO-31 13.9 µM | EKVX 16.4 µM | SN12C 12 µM | U-251 10.9 µM | IGROV-1 18.4 µM | A498 18.2 µM | TK-10 17.6 µM | HOP-92 20.8 µM | RXF 393 10.6 µM | NCI-H226 16.2 µM | HT-29 12.8 µM | HL-60 3.31 µM | NCI-H460 14 µM

CC(C)=CCCC1(C)C=Cc2c(c(C)cc3c2[nH]c2cc(O)ccc23)O1 (configuration not stated)
inactive: UO-31 > 25 µM | SN12C > 25 µM | SK-MEL-2 > 25 µM | U-251 > 25 µM | IGROV-1 > 25 µM | NCI-H522 6.82 µM | TK-10 > 25 µM | SK-OV-3 > 25 µM | HOP-92 > 25 µM | RXF 393 > 25 µM | NCI-H226 > 25 µM | HT-29 > 25 µM | HL-60 22.5 µM | NCI-H460 > 25 µM

COc1ccc(Br)c(C(=O)N2CCc3ccccc32)c1N
inactive: UO-31 33.8 µM | SN12C 41.8 µM | SK-MEL-2 25.1 µM | U-251 33.9 µM | IGROV-1 70.5 µM | NCI-H522 16.7 µM | TK-10 42.9 µM | SK-OV-3 30.5 µM | HOP-92 > 100 µM | RXF 393 55.2 µM | NCI-H226 58.6 µM | HT-29 52 µM | HL-60 40.6 µM | NCI-H460 36 µM

C[N+]1(C)C/C(=C/c2ccc(F)cc2)C(=O)/C(=C\c2ccc(F)cc2)C1
inactive: UO-31 > 100 µM | EKVX > 100 µM | SN12C 2.14 µM | SK-MEL-2 56.8 µM | U-251 16.4 µM | IGROV-1 26.1 µM | NCI-H522 16.6 µM | A498 31.1 µM | TK-10 > 100 µM | SK-OV-3 > 100 µM | HOP-92 > 100 µM | RXF 393 > 100 µM | HL-60 17.3 µM | NCI-H460 50.9 µM

CC#CCC1CCC(OCC)=CC1=O (configuration not stated)
inactive: UO-31 > 100 µM | EKVX > 100 µM | SN12C > 100 µM | SK-MEL-2 > 100 µM | U-251 > 100 µM | IGROV-1 > 100 µM | NCI-H522 > 100 µM | TK-10 > 100 µM | SK-OV-3 > 100 µM | HOP-92 > 100 µM | RXF 393 > 100 µM | NCI-H226 92.7 µM | HT-29 > 100 µM | HL-60 > 100 µM | NCI-H460 > 100 µM

c1ccc2c(c1)C1=NCCN1c1ccccc1-2
inactive: UO-31 2.77 µM | EKVX 4.54 µM | SN12C 2.45 µM | SK-MEL-2 3.19 µM | U-251 3.15 µM | IGROV-1 3.44 µM | NCI-H522 1.45 µM | A498 3.18 µM | TK-10 2.49 µM | SK-OV-3 4.9 µM | HOP-92 4.45 µM | RXF 393 1.56 µM | HT-29 2.41 µM | HL-60 2.42 µM | NCI-H460 1.77 µM

CCOC(=O)C(C)(C)Oc1ccc(/C=C/C(=O)c2ccc(Cl)cc2)cc1
inactive: UO-31 35.2 µM | EKVX > 100 µM | SN12C 19.1 µM | SK-MEL-2 20.7 µM | U-251 17.7 µM | IGROV-1 17.3 µM | A498 20.2 µM | TK-10 70.8 µM | RXF 393 15.3 µM | NCI-H226 30 µM | HT-29 15.6 µM | HL-60 24.5 µM | NCI-H460 28.7 µM

OC1OC2COC(c3ccccc3)OC2C(O)C1O (configuration not stated)
inactive: UO-31 > 100 µM | EKVX > 100 µM | SN12C > 100 µM | SK-MEL-2 > 100 µM | U-251 > 100 µM | IGROV-1 > 100 µM | NCI-H522 > 100 µM | A498 > 100 µM | TK-10 > 100 µM | SK-OV-3 > 100 µM | HOP-92 > 100 µM | NCI-H226 > 100 µM | HT-29 > 100 µM | HL-60 > 100 µM | NCI-H460 > 100 µM

Ic1ncnc2c1ncn2C1CCCO1 (configuration not stated)
inactive: UO-31 > 100 µM | EKVX > 100 µM | SN12C > 100 µM | SK-MEL-2 > 100 µM | U-251 > 100 µM | IGROV-1 > 100 µM | NCI-H522 > 100 µM | A498 > 100 µM | TK-10 > 100 µM | SK-OV-3 > 100 µM | HOP-92 > 100 µM | NCI-H226 > 100 µM | HT-29 > 100 µM | HL-60 > 100 µM | NCI-H460 > 100 µM

COc1ccc2c(c1)CCc1c(C(C)=O)c3ccccc3n1C2
inactive: UO-31 11.7 µM | SN12C 49.5 µM | U-251 20.2 µM | IGROV-1 19.3 µM | NCI-H522 19.9 µM | TK-10 60.4 µM | HOP-92 20.3 µM | RXF 393 22.8 µM | HT-29 > 100 µM | HL-60 11.5 µM | NCI-H460 47.3 µM

C#CCn1c(=O)[nH]c(=O)c2cccnc21
inactive: SN12C > 100 µM | SK-MEL-2 > 100 µM | U-251 > 100 µM | NCI-H522 > 100 µM | TK-10 > 100 µM | SK-OV-3 > 100 µM | HOP-92 > 100 µM | RXF 393 > 100 µM | NCI-H226 > 100 µM | HL-60 > 100 µM
